Results taken from patent publication US8575338B2, “Pyrimidine, pyridine and triazine derivatives as maxi-K channel openers” (Mitsubishi Tanabe Pharma Corporation, priority 2008, dated 2013).
pIC50: −log10 of the molar value.

Legend:
Cox-1 = molecular target: T1, Cox-1 (Rattus norvegicus, UniProt Q63921); test: COXs inhibition, rat whole blood Cox-1; type: cell-based; details: read-out: ratWB Cox-1 IC50
T1 construct: from tissue; host or cells: rat whole blood ('ratWB')
T1 sequence (Q63921 27-602): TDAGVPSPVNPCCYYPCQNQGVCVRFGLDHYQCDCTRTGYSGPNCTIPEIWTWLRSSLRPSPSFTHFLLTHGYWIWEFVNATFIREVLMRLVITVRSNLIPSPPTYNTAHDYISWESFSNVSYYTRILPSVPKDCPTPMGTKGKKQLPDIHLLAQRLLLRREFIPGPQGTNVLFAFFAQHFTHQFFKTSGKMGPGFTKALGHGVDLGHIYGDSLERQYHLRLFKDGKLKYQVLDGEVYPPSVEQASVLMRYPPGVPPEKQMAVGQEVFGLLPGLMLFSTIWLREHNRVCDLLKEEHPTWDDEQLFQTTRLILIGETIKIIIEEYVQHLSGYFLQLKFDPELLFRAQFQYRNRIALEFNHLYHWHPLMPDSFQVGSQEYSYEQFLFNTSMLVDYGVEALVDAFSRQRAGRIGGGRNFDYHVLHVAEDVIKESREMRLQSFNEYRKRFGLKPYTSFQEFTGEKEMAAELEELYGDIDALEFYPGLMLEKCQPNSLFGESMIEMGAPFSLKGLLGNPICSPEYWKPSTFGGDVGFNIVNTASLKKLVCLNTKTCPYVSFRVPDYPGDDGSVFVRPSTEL
Description: Methods for Testing Compounds on Inhibiting COXs
Activities of inhibiting COXs can be investigated by the manner described in Proc. Natl. Acad. Sci. USA 96, 7563, […].
As a result, compounds of the present invention are less or no potent COXs inhibitors. A result of COXs inhibition of the selected compounds (Example Nos. 1, 3, 12, 188, 474, 497, 507, 513, 527, 533, 562, and 638) are: ratWB Cox-1 IC50>30 μM and ratWB IC50>30 μM.

human BKαβ1 channels = molecular target: T2, human BKαβ1 channels (Homo sapiens, UniProt Q12791); test: BK current in CHO cells expressing human BKαβ1 (PatchXpress whole-cell patch clamp), EC100; type: cell-based; details: drug concentration causing 100% increase of BK current
T2 construct: expressed in transfected cells; host or cells: CHO cells (G418 and hygromycin selection)
Description: Methods for Testing Compounds on Human BKαβ1 Channels Expressed Cho Cells
CHO cells expressing human BKαβ1 were cultured in T75 or 6 well cell culture cluster. Medium: DMEM/F12+10% FBS+0.5 mg/mL G418/genetecin+0.1 mg/mL Hygromycin. Split cells every 3-4 days at 80-90% confluence. Use cells for experiments 60-72 hrs after re-passage and at ˜90% confluence.
Trypsin solution (0.05% Trypsin+0.1% EDTA), Ca^2+ free PBS and culture medium were warmed to 37° C. Inspect the T75 flask for cell confluence. Remove culture medium and add warm Ca^2+ free PBS to wash cells. Remove Ca^2+ free PBS and add warm Trypsin solution. Put the T75 flask back to 37° C. incubator for about 4.5 minutes. Stop Trypsin activity by adding culture medium. Spin the cells down. Suspend cells in 120-160 μL external solution for BK current recording and use the cells as soon as possible.
PatchXpress Sealchip 16 electrodes (AVIVA Biosciences) and PatchXpress 7000A (Axon Instruments, Inc) were used for BK current recording. Flat bottom 1.5 mL glass vial (HiPep Laboratories) were used for containing external solutions (±compounds). The holes in the sealchip (equivalent to patch electrode) had resistance about 1.5 MΩ. Cell membrane capacitance was compensated and access resistance was also compensated by 40%. Voltage-clamp protocol: Holding voltage=0 mV. Record BK current during 200-ms steps between +80 to +120 mV in 10 mV increments and 2 sec inter-pulse interval. On-line digital leak subtraction was performed by a P/−4 procedure. After whole-cell configuration was established, 2 minute was used to optimize access resistance. Then the chamber was washed with control bath solution for 1 minute to remove excessive cells. Control bath solution was added with robotic pipette and control BK current was recorded after 1 minute equilibrium time. For each drug concentration, 45 μL drug solution was added three times with “suction before adding” mode which left old solution. For each drug addition, 1 minute equilibrium time was given. BK current was measured at each drug concentrations (usually within 3.5 minutes after first drug addition). Calculate % change of BK current at the voltage step when the control BK current first exceeding 200 pA. If the control BK current was less than 200 pA at 120 mV, the cell was not used. % changes were calculated as 100*(Id−Ic)/Ic, where Id was the current amplitude in the presence of drug and Ic was the control current amplitude.
EC100 was defined as the drug concentration causing 100% increase of BK current calculated by the method described above. EC100 was determined by the data points just below and above 100%. % Increase of BK current was plotted against log [drug concentration]. A straight line connected two data points flanking 100%. From this straight line, the concentration corresponding to 100% increase of BK current was determined as EC100.
Compounds were dissolved in DMSO to make 10 mM stock solutions. Subsequent dilutions were made with external solution. The testing drug concentrations were 0.1, 0.3, 1, 3 and 10 μM depending on the potency of compounds. The highest DMSO concentration was 0.1%. External solution (in mM): 140 NaCl, 4 KCl, 1 MgCl2, 2 CaCl2, 10 Glucose, 10 HEPES; pH=7.4 with NaOH. Internal solution (in mM): 140 KCl, 5 EGTA, 1 MgCl2, 5 MgATP, 0.2 CaCl2, 5 HEPES; pH=7.2 with KOH.

[1] = test system: rhythmic bladder contractions; test: Inhibitory effect on the rhythmic bladder contractions in anesthetized rats; type: in vivo, rat; details: 10 mg/kg
Text: Inhibitory Effect on the Rhythmic Bladder Contractions in Anesthetized Rats
Female Sprague-Dawley rats (9 to 12 weeks old weighing between 200 to 300 g) were anethethized with urethane (subcutaneously administered with a dose of 1.2 g/kg). Both ureters were cannulated to excrete urine. A cannula was inserted into the bladder via the urethra and secured with a ligature around the urethral opening and connected to a three-way stopcock. The ends were connected to a pressure transducer for measurement of bladder pressure and to a infusion pump for intravesical infusion of saline. A cannula was inserted in the femoral vein for intravenous (i.v.) drug administration. Following a over 20 minute post-surgical stabilization period and emptying of urine in the bladder, saline was infused into the bladder (50 μl/min) to evoke the micturition reflex. After the rhythmic bladder contractions had occurred, the saline infusion rate into the bladder was changed to 5 μl/min in order to maintain these contractions. Compounds were administered after stable rhythmic bladder contraction was obtained over 15 minutes. All compounds were dissolved in saline containing 10% dimethyl acetamide for intravenous administration (1 ml/kg). When iberiotoxin, a large conductance calcium-activated K channel blocker (0.15 mg/kg, i.v.) was administered for comparison purposes, it was administered 5 minutes before drug administration.
The frequencies (contractions per minute) of rhythmic bladder contractions were calculated for 10 minutes before and after drug administration. The efficacy of compounds expressed as percent of inhibition in frequency, which calculated from the following formula: (1−frequency after dosing/frequency before dosing)×100(%)

T2 sequence (Q12791 whole entry): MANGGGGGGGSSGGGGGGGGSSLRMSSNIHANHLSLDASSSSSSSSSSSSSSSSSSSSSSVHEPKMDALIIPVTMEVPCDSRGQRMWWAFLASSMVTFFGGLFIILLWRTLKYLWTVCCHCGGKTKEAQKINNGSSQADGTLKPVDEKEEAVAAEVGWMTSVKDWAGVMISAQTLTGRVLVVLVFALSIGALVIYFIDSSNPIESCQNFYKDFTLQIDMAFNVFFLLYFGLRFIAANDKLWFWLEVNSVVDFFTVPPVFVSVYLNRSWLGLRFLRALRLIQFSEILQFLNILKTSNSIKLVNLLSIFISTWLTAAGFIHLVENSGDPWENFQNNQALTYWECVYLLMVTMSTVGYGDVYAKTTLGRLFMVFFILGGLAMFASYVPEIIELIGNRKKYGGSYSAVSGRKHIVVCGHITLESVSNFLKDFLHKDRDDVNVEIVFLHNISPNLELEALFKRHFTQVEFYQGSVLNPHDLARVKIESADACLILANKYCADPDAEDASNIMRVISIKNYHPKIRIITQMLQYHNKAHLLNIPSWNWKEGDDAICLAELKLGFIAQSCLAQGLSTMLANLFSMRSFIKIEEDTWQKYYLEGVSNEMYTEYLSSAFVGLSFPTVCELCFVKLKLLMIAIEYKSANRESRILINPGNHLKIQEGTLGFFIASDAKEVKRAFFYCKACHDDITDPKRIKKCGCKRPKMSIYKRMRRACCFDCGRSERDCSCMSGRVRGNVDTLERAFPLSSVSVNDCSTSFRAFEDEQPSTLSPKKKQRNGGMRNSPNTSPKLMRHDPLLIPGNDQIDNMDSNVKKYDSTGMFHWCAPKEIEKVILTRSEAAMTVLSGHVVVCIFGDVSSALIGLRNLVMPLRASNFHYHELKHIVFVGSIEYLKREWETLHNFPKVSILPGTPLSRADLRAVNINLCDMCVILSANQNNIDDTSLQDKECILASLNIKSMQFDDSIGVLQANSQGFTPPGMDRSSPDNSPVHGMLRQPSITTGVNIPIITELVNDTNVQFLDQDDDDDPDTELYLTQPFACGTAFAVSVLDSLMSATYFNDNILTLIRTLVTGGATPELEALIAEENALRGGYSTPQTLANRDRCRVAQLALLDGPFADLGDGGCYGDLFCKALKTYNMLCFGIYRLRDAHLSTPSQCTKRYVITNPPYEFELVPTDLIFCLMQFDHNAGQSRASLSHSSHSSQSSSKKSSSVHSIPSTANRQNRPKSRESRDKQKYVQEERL
T2 sequence (Q16558 whole entry partner): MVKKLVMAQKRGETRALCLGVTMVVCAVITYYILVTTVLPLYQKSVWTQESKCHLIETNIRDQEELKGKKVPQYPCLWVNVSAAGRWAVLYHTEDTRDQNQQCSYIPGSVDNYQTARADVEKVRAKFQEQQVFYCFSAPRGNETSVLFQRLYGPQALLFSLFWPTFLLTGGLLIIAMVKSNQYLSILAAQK

| SMILES | pIC50 (Cox-1) | EC100 (human BKαβ1 channels) | percent of inhibition in frequency of rhythmic bladder contractions ([1]; anesthetized female Sprague-Dawley rats, i.v., 10 minutes before vs after dosing) | percent of inhibition in frequency of rhythmic bladder contractions ([1]; anesthetized rats, intravenous) |
| --- | --- | --- | --- | --- |
| COC[C@@H]1CCCN1c1cc(OC2(C(=O)[O-])CC2)nc(-c2cc(Cl)c(Cl)s2)n1.[Na+] [Example 5] | – | 0.78 µM | 78% | – |
| COC[C@@H]1CCCN1c1cc(OC(C)(C)C(=O)[O-])nc(-c2ccc(Cl)c(F)c2)n1.[Na+] [Example 12] | – | 1.39 µM | – | A (A: inhibition(%) > 50) |
| CC(C)(Oc1cc(N2CCC[C@H]2CF)nc(-c2ccc(Cl)c(F)c2)n1)C(=O)[O-].[Na+] [Example 22] | – | – | – | A (A: inhibition(%) > 50) |
| CC(C)OC1CCN(c2cc(OC3(C(=O)[O-])CC3)nc(-c3ccc(Cl)c(F)c3)n2)CC1.[Na+] [Example 52] | – | – | – | A (A: inhibition(%) > 50) |
| O=C([O-])C1(Oc2cc(N3CCC(CCO)CC3)nc(-c3ccc(Cl)c(F)c3)n2)CCCC1.[Na+] [Example 59] | – | 0.51 µM | – | B (B: 50 > inhibition(%) > 30) |
| COc1ccc(-c2cc(OC3(C(=O)[O-])CCCC3)nc(-c3ccc(Cl)c(F)c3)n2)cn1.[Na+] [Example 567] | – | – | – | B (B: 50 > inhibition(%) > 30) |
| CCCOC1CCN(c2cc(OC3(C(=O)[O-])CC3)nc(-c3ccc(C(F)(F)F)cc3)n2)CC1.[Na+] [Example 693] | – | – | – | A (A: inhibition(%) > 50) |
| CCOc1cc(-c2nc(-c3ccc(F)cc3)nc(OC3(C(=O)[O-])CC3)c2C)ccc1F.[Na+] [Example 977] | – | 0.13 µM | – | B (B: 50 > inhibition(%) > 30) |
| O=C([O-])C1(Oc2cc(N3CCc4cc(F)ccc4C3)nc(-c3ccc(F)cc3)n2)CC1.[Na+] [Example 1110] | – | 0.3 µM | – | B (B: 50 > inhibition(%) > 30) |
| COCC1CCN(c2nc(OC3(C(=O)O)CC3)cc(-c3cc(Cl)c(Cl)s3)n2)CC1 [Example 1217] | – | 0.19 µM | – | – |
| COCCC1CCN(c2nc(OC3(C(=O)O)CC3)cc(-c3cc(Cl)c(Cl)s3)n2)CC1 [Example 1218] | – | 0.15 µM | – | – |
| CCO[C@H]1CCCN(c2nc(OC3(C(=O)[O-])CC3)cc(-c3cc(Cl)c(Cl)s3)n2)C1.[Na+] [Example 1227] | – | 0.37 µM | – | B (B: 50 > inhibition(%) > 30) |
| O=C(O)C1(Oc2cc(-c3ccc(Cl)cc3)nc(OCc3ccc(F)c(F)c3)n2)CC1 [Example 1286] | – | 1.2 µM | – | – |

Second part, led by results:

| pIC50 (Cox-1) | EC100 (human BKαβ1 channels) | SMILES | percent of inhibition in frequency of rhythmic bladder contractions ([1]; anesthetized female Sprague-Dawley rats, i.v., 10 minutes before vs after dosing) | percent of inhibition in frequency of rhythmic bladder contractions ([1]; anesthetized rats, intravenous) |
| --- | --- | --- | --- | --- |
| < 4.52 | – | CC(C)(Oc1cc(N2CCCCC2)nc(-c2ccc(Cl)c(F)c2)n1)C(=O)O [Example 1] | – | – |
| < 4.52 | – | O=C(O)COc1cc(N2CCc3ccccc32)nc(-c2ccc(Cl)c(F)c2)n1 [Example 3] | – | – |
| – | 0.14 µM | CCC(CC)(Oc1cc(N2CCC[C@H]2COC)nc(-c2ccc(Cl)c(F)c2)n1)C(=O)[O-].[Na+] [Example 31] | – | B (B: 50 > inhibition(%) > 30) |
| < 4.52 | – | O=C(O)COc1cc(-c2ccc(Cl)c(F)c2)nc(-c2ccc(F)cc2)n1 [Example 188] | – | – |
| – | 0.31 µM | CC(C)(Oc1cc(-c2cccc3cccnc23)nc(-c2ccc(Cl)c(F)c2)n1)C(=O)[O-].[Na+] [Example 497] | – | B (B: 50 > inhibition(%) > 30) |
| – | 0.37 µM | COCc1ccc(-c2cc(OC3(C(=O)[O-])CC3)nc(-c3ccc(Cl)c(F)c3)n2)cc1.[Na+] [Example 527] | – | A (A: inhibition(%) > 50) |
| – | 0.36 µM | COc1ccc(-c2cc(OC3(C(=O)[O-])CC3)nc(-c3ccc(Cl)c(F)c3)n2)cn1.[Na+] [Example 534] | – | B (B: 50 > inhibition(%) > 30) |
| – | 0.28 µM | COc1ccccc1-c1cc(OC2(C(=O)[O-])CCCC2)nc(-c2ccc(Cl)c(F)c2)n1.[Na+] [Example 565] | – | B (B: 50 > inhibition(%) > 30) |
| – | 0.49 µM | COCCOc1cc(F)ccc1-c1cc(OC2(C(=O)[O-])CC2)nc(-c2ccc(F)c(F)c2)n1.[Na+] [Example 619] | – | B (B: 50 > inhibition(%) > 30) |
| – | 0.03 µM | Cc1ccc(Cl)cc1-c1nc(OC2(C(=O)[O-])CC2)nc(-c2ccc(Cl)cc2)n1.[Na+] [Example 1091] | – | B (B: 50 > inhibition(%) > 30) |
| – | 0.12 µM | O=C(O)C1(Oc2cc(OCc3ccc(F)cc3)nc(-c3ccc(Cl)cc3)n2)CC1 [Example 1281] | – | – |
